Laboratory results taken from ChEMBL document CHEMBL1201862, “PubChem BioAssay data set” (2004).
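Cultured in 96-well plates, cells were exposed to test compound for 48 hours across five concentrations. At the GI50, growth is halved.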 The source made the active and inactive calls. Cut-off read from the data, not from the text of the source: active = GI50 up to about 1.1 µM and inactive = higher.

Key:
Assay in all cases: NCI-60 cell line screen, 48 h
[1] = test system: HCT-116
[2] = test system: PC-3
[3] = test system: A549
[4] = test system: MCF7
[5] = test system: SR
[6] = test system: NCI-H522
[7] = test system: T47D
[8] = test system: TK-10
[9] = test system: SK-MEL-28
[10] = test system: IGROV-1
[11] = test system: SN12C
[12] = test system: MOLT-4
[13] = test system: SF-295
[14] = test system: SW-620
[15] = test system: HOP-92
[16] = test system: NCI-H460
[17] = test system: OVCAR-4
[18] = test system: EKVX
[19] = test system: RXF 393

| SMILES | GI50 [1] | GI50 [2] | GI50 [3] | GI50 [4] | GI50 [5] | GI50 [6] | GI50 [7] | GI50 [8] | GI50 [9] | GI50 [10] | GI50 [11] | GI50 [12] | GI50 [13] | GI50 [14] | GI50 [15] | GI50 [16] | GI50 [17] | GI50 [18] | GI50 [19] |
| --- | --- | --- | --- | --- | --- | --- | --- | --- | --- | --- | --- | --- | --- | --- | --- | --- | --- | --- | --- |
| Nc1ncnc2oc(C3OC(COC(=O)c4ccccc4)C(OC(=O)c4ccccc4)C3OC(=O)c3ccccc3)nc12 (stereo unspecified) | > 100 µM (inactive) | 98.6 µM (inactive) | > 100 µM (inactive) | > 100 µM (inactive) | > 100 µM (inactive) | > 100 µM (inactive) | 21.1 µM (inactive) | > 100 µM (inactive) | > 100 µM (inactive) | > 100 µM (inactive) | > 100 µM (inactive) | > 100 µM (inactive) | > 100 µM (inactive) | > 100 µM (inactive) | > 100 µM (inactive) | > 100 µM (inactive) | > 100 µM (inactive) | > 100 µM (inactive) | > 100 µM (inactive) |
| CC(=O)c1c2c(c3ccccc3c1O)O[C@@H]1OCC[C@H]21 | > 100 µM (inactive) | > 100 µM (inactive) | > 100 µM (inactive) | 30 µM (inactive) | > 100 µM (inactive) | > 100 µM (inactive) | > 100 µM (inactive) | > 100 µM (inactive) | > 100 µM (inactive) | > 100 µM (inactive) | > 100 µM (inactive) | > 100 µM (inactive) | > 100 µM (inactive) | > 100 µM (inactive) | > 100 µM (inactive) | > 100 µM (inactive) | 53.3 µM (inactive) | > 100 µM (inactive) | > 100 µM (inactive) |
| CCC(=O)Oc1ccc2c(c1)c(=O)c1c(NCCCN(C)C)ccc3nnn2c31 | 0.334 µM (active) | 2.48 µM (inactive) | 0.275 µM (active) | 0.536 µM (active) | 0.201 µM (active) | 0.188 µM (active) | 15.7 µM (inactive) | 0.818 µM (active) | 10.9 µM (inactive) | 0.0914 µM (active) | 0.525 µM (active) | < 0.0204 µM (active) | 2.45 µM (inactive) | 0.322 µM (active) | 3.48 µM (inactive) | 0.0348 µM (active) | 0.548 µM (active) | 1.17 µM (inactive) | 1.83 µM (inactive) |
| Cc1cc(C(C)(C)C)c(OCCCN2CCOCC2)c(C(C)(C)C)c1 | 16.7 µM (inactive) | 15.8 µM (inactive) | 17.5 µM (inactive) | 18.6 µM (inactive) | 17.7 µM (inactive) | 17.9 µM (inactive) | 15.1 µM (inactive) | 19.3 µM (inactive) | 16.4 µM (inactive) | 19.5 µM (inactive) | 17.8 µM (inactive) | 17.1 µM (inactive) | 17.5 µM (inactive) | 16.9 µM (inactive) | 20.4 µM (inactive) | 30.9 µM (inactive) | 15.9 µM (inactive) | 17.9 µM (inactive) | 16 µM (inactive) |
| O=C1C=CC(=O)c2c1ccc1c3ccccc3n(CCCCCCCCCCCCn3c4ccccc4c4ccc5c(c43)C(=O)C=CC5=O)c21 | > 100 µM (inactive) | > 100 µM (inactive) | > 100 µM (inactive) | > 100 µM (inactive) | 50.5 µM (inactive) | > 83.6 µM (inactive) | > 100 µM (inactive) | > 100 µM (inactive) | > 100 µM (inactive) | > 100 µM (inactive) | > 100 µM (inactive) | 49.9 µM (inactive) | > 100 µM (inactive) | > 100 µM (inactive) | > 100 µM (inactive) | > 100 µM (inactive) | > 100 µM (inactive) | > 100 µM (inactive) | > 100 µM (inactive) |
| CN(O)C(=O)Cc1ccc(OCc2cccc(Cl)c2)cc1 | > 100 µM (inactive) | > 100 µM (inactive) | > 100 µM (inactive) | > 100 µM (inactive) | > 100 µM (inactive) | > 100 µM (inactive) | 40.4 µM (inactive) | > 100 µM (inactive) | > 100 µM (inactive) | > 100 µM (inactive) | > 100 µM (inactive) | > 100 µM (inactive) | > 100 µM (inactive) | > 100 µM (inactive) | > 100 µM (inactive) | > 100 µM (inactive) | > 100 µM (inactive) | > 100 µM (inactive) | > 100 µM (inactive) |
| FC(F)(F)c1ccc(C2ON=C(c3ccccc3)N2C23CC4CC(CC(C4)C2)C3)cc1 (stereo unspecified) | > 10 µM (inactive) | > 10 µM (inactive) | > 10 µM (inactive) | 1.39 µM (inactive) | > 10 µM (inactive) | > 10 µM (inactive) | > 10 µM (inactive) | > 10 µM (inactive) | > 10 µM (inactive) | > 10 µM (inactive) | > 10 µM (inactive) | > 10 µM (inactive) | > 10 µM (inactive) | > 10 µM (inactive) | > 10 µM (inactive) | > 10 µM (inactive) | > 10 µM (inactive) | > 10 µM (inactive) | > 10 µM (inactive) |
| CC(=O)OCC1OC(n2c(-c3cccs3)c3c(c(C#N)c2=S)-c2ccccc2CC3)C(OC(C)=O)C(OC(C)=O)C1OC(C)=O (stereo unspecified) | 7.67 µM (inactive) | 9.04 µM (inactive) | 13.2 µM (inactive) | 6.01 µM (inactive) | 3.05 µM (inactive) | 10.7 µM (inactive) | 5.07 µM (inactive) | 6.19 µM (inactive) | 13.7 µM (inactive) | 9.04 µM (inactive) | 20.2 µM (inactive) | 4.48 µM (inactive) | 13.7 µM (inactive) | 15.5 µM (inactive) | 2.51 µM (inactive) | 11.5 µM (inactive) | 5.32 µM (inactive) | 5.53 µM (inactive) | 8.28 µM (inactive) |
| COc1cc2ccc1OCc1cccc(n1)COc1ccc(cc1OC)/C=N\CCNCC/N=C\2 | 45.4 µM (inactive) | > 100 µM (inactive) | > 100 µM (inactive) | > 100 µM (inactive) | > 100 µM (inactive) | 34.4 µM (inactive) | 65.8 µM (inactive) | > 100 µM (inactive) | > 100 µM (inactive) | > 100 µM (inactive) | > 100 µM (inactive) | > 100 µM (inactive) | 41.7 µM (inactive) | > 100 µM (inactive) | 48.4 µM (inactive) | > 100 µM (inactive) | > 100 µM (inactive) | > 100 µM (inactive) | > 100 µM (inactive) |
| CCCCC1Cc2cc(O)ccc2-c2n1c1cc(O)ccc1[n+]2C.CCCCC1Cc2cc(O)ccc2-c2n1c1ccc(O)cc1[n+]2C (stereo unspecified) | 36.9 µM (inactive) | 49.5 µM (inactive) | 22.9 µM (inactive) | 19 µM (inactive) | 56.5 µM (inactive) | 2.99 µM (inactive) | 22.3 µM (inactive) | 22.1 µM (inactive) | 6.64 µM (inactive) | 25.9 µM (inactive) | 5.58 µM (inactive) | 49.1 µM (inactive) | 4.82 µM (inactive) | 32.2 µM (inactive) | 9.55 µM (inactive) | 37.9 µM (inactive) | 27.7 µM (inactive) | 0.476 µM (active) | 34 µM (inactive) |
| Oc1ccccc1/C=N/Nc1nnc2c3ccccc3c3ccccc3c2n1 | > 100 µM (inactive) | 80.5 µM (inactive) | > 100 µM (inactive) | 32.3 µM (inactive) | 52.6 µM (inactive) | 20 µM (inactive) | 65 µM (inactive) | 45.4 µM (inactive) | > 100 µM (inactive) | 39.9 µM (inactive) | > 100 µM (inactive) | > 100 µM (inactive) | 32.8 µM (inactive) | 82.4 µM (inactive) | > 100 µM (inactive) | 41.8 µM (inactive) | > 100 µM (inactive) | > 100 µM (inactive) | 25.1 µM (inactive) |
| CNc1ncnc2c1cnn2CCCCO | > 100 µM (inactive) | > 100 µM (inactive) | > 100 µM (inactive) | > 100 µM (inactive) | > 100 µM (inactive) | > 100 µM (inactive) | > 100 µM (inactive) | > 100 µM (inactive) | > 100 µM (inactive) | > 100 µM (inactive) | > 100 µM (inactive) | > 100 µM (inactive) | > 100 µM (inactive) | > 100 µM (inactive) | > 100 µM (inactive) | > 100 µM (inactive) | > 100 µM (inactive) | > 100 µM (inactive) | > 100 µM (inactive) |
| CC(C)(C)OC(=O)N(CCCCN(CCCNC(=O)C(F)(F)F)C(=O)OC(C)(C)C)CCCNC(=O)C(F)(F)F | > 100 µM (inactive) | > 100 µM (inactive) | > 100 µM (inactive) | > 100 µM (inactive) | > 100 µM (inactive) | 24 µM (inactive) | > 100 µM (inactive) | > 100 µM (inactive) | > 100 µM (inactive) | > 100 µM (inactive) | > 100 µM (inactive) | 71.9 µM (inactive) | > 100 µM (inactive) | > 100 µM (inactive) | > 100 µM (inactive) | > 100 µM (inactive) | > 100 µM (inactive) | > 100 µM (inactive) | > 100 µM (inactive) |
| CCOC(=O)/C(C#N)=C/c1ccc2c(c1)CC1(C2)Cc2cc(CC)c(C(C)O)cc2C1 (stereo unspecified) | 4.27 µM (inactive) | 10.2 µM (inactive) | 44.1 µM (inactive) | 5.18 µM (inactive) | 5.05 µM (inactive) | 47 µM (inactive) | 27.9 µM (inactive) | 25.5 µM (inactive) | 12.8 µM (inactive) | 23 µM (inactive) | 14.2 µM (inactive) | 4.59 µM (inactive) | 15.7 µM (inactive) | 5.38 µM (inactive) | 16.5 µM (inactive) | 23.2 µM (inactive) | 9.59 µM (inactive) | 57.5 µM (inactive) | 6.79 µM (inactive) |
